In paper PMC12030497, “Plasma Protein Binding, Biostability, Metabolite Profiling, and CYP450 Phenotype of TPB15 Across Different Species: A Novel Smoothened Inhibitor for TNBC Therapy” (Pharmaceutics, 2025):

Legend:
[1] = Plasma protein binding by ultrafiltration, monkey plasma; assay type: in vitro ADME, cynomolgus monkey
Method: (§1) To prepare plasma samples of TPB15 at final concentrations of 4, 8, and 16 μg/mL, 1 μL of TPB15 dissolved in dimethyl sulfoxide (DMSO) at low (400 μg/mL), medium (800 μg/mL), and high (1600 μg/mL) concentrations was added to 99 μL of blank plasma obtained from humans, rats, mice, monkeys, and dogs. Each concentration was prepared in six replicates. The samples were then divided into two groups: one for determining the pre-ultrafiltration concentration (Cpre) and the other for measuring the post-ultrafiltration concentration (Ct), following the evaluation of the non-specific binding coefficient (NSB) of TPB15 to the ultrafiltration tubes. For Cpre determination, 10 μL of the sample was mixed with 990 μL of plasma, vortexed thoroughly, and analyzed for drug concentration using the previously reported liquid chromatography–tandem mass spectrometry (LC-MS/MS) method. For Ct determination, the samples were first incubated in a water bath at 37 °C for 3 h. After incubation, they were transferred to ultrafiltration tubes and centrifuged at 14,000 rpm for 20 min at 4 °C using a centrifuge (Sigma 3K-15) from Sigma Laborzentrifugen GmbH (Osterode am Harz, Germany). After centrifugation, 10 μL of the ultrafiltrate was mixed with 990 μL of plasma, vortexed, and analyzed for concentration using the same LC-MS/MS method. The formula for calculating the plasma protein binding rate (PPB) is as follows: PPB (%) = [1 − Ct/(1 − NSB)/Cpre] × 100%. (NSB: non-specific binding coefficient. […]).

[2] = Plasma protein binding by ultrafiltration, dog plasma; assay type: in vitro ADME; conditions: beagle
Method: as §1

[3] = Stability in human plasma; assay type: in vitro ADME; conditions: 37 °C, 453 μg/L
Method: A total of 696.5 μL of plasma from each species (healthy mice, rat, dog, monkey, and human) were spiked with 3.5 μL of TPB15 stock solution ([…] in DMSO), resulting in a final TPB15 concentration of 453 μg/L in plasma. The mixture was then aliquoted into three tubes, each with a volume of 200 μL, maintaining a final DMSO concentration of 0.5%. After incubation in a water bath at 37 °C for 0, 30, 60, 90, and 120 min, 100 µL samples were transferred into EP tubes. Subsequently, 10 µL of internal standard working solution were added, followed by vortex mixing. Then, 500 µL of ethyl acetate were added, and the mixture was vortexed again before being centrifuged at 14,800 rpm at 4 °C for 10 min. A total of 400 µL of the supernatant were transferred into a new EP tube and placed in a vacuum concentrator (Bionoon-VAC2) (Bionoon Biotech, Shanghai, China) to dry for 1 h. The dried residue was reconstituted with 100 µL of mobile phase, vortex mixed thoroughly, and centrifuged again at 14,800 rpm at 4 °C for 10 min. A volume of 5 µL of the supernatant was then taken for LC-MS/MS analysis to determine the drug concentration. Additionally, a blank control group was established, in which PBS buffer was used in place of blank plasma in the incubation system.

[4] = tested on: CYP450 enzymes in human liver microsomes; assay: Metabolic enzyme phenotype of TPB15 in human liver microsomes with selective CYP450 inhibitors; assay type: in vitro ADME
Method: The specific procedure was as follows: a total of 0.5 μL of the substrate TPB15 and 0.5 μL of each specific inhibitor were mixed with 449 μL of human liver microsomes, and the mixture was incubated at 37 °C for 10 min. Subsequently, 50 μL of NADPH with a concentration of 10 mM in PBS were introduced to initiate the reaction. After 90 min, 50 μL of the reaction mixture were transferred to a 150 μL ice-cold methanol solution containing an internal standard to terminate the reaction. The mixture was vortexed for 2 min and then centrifuged at 4 °C at 14,800 rpm for 10 min. A volume of 130 μL of the supernatant was then transferred to a new EP tube, which was centrifuged again at 4 °C at 14,800 rpm for another 10 min. Finally, 5 μL of the supernatant were injected for the determination of substrate TPB15 concentration. Three parallel samples were prepared for each time point. The experiment also included a positive control group and a negative control group. In the positive control group, substrate TPB15 was incubated with human liver microsomes for 90 min without the addition of inhibitors. In the negative control group, the substrate TPB15 was incubated for 90 min without inhibitors, with human liver microsomes replaced by an equal volume of phosphate-buffered saline (PBS). The metabolic rate of TPB15 in human liver microsomes was represented by the elimination rate of the substrate TPB15.

[5] = Metabolite identification in human liver microsomes; assay type: in vitro ADME; conditions: metabolite +16 Da, seen at 45 and 90 min, not at 0 min
Method: A total of 450 μL of human liver microsomes were spiked with 0.5 μL of the substrate TPB15 and incubated in a water bath at 37 °C for 10 min. The reaction was initiated by adding 50 μL of NADPH. Following incubation, 50 μL of the reaction mixture were transferred to 150 μL of ice-cold methanol to terminate the reaction. The mixture was then centrifuged at 14,800 rpm at 4 °C for 10 min. A volume of 5 μL of the supernatant was collected for analysis using a QTRAP 4000 mass spectrometer(AB Sciex, Framingham, MA, USA), with three parallel samples prepared for each time point. The primary mass spectrometry conditions were as follows: curtain gas at 30 psi, sprayer gas (GS1) at 50 psi, drier gas (GS2) at 50 psi, ion source temperature at 550 °C, and cluster-removal voltage at 100 V. The ion source (IS) spray voltage was set to 5500 V, with a focusing potential (FP) of 200 V, an entrance potential (EP) of 10 V, an exit potential (CXP) of 15 V, and a collision energy of 86 V for TPB15. Chromatographic separation was performed using an Agilent ZORBAX Stable Bond C18 column (50 mm × 2.1 mm i.d., 3.5 μm particle size) at a column temperature of 35 °C. The injection volume was 5 μL, and the elution was carried out in gradient mode. The mobile phase consisted of two components: mobile phase A (an aqueous solution with 0.1% formic acid) and mobile phase B (methanol). […]

mice = tested on: mice; design: method as in PMID 32690258; conditions: acute toxicity; cited from earlier work
MDA-MB-468 = tested on: MDA-MB-468; design: method as in PMID 32690258; conditions: MDA-MB-468, in vitro; cited from earlier work
MDA-MB-468 xenograft = tested on: MDA-MB-468 xenograft; design: method as in PMID 32690258; conditions: MDA-MB-468 xenograft nude mouse model, compared with positive control drug Vismodegib; cited from earlier work
Smo = tested on: Smo; design: method as in PMID 32690258; conditions: preliminary studies; cited from earlier work

**Q.** Which fraction unbound at 3 h, 4 μg/mL ([1]; cynomolgus monkey, plasma, 4 μg/mL TPB15, ultrafiltration, 37 °C 3 h) does the source give for `O=C(Nc1ccc(Cl)c(-c2nnc3c(Cl)cccn23)c1)c1ccc(Cl)nc1Cl` [TPB15] here?
**A.** 0.185

**Q.** And the fraction unbound at 3 h, 8 μg/mL ([1]; cynomolgus monkey, plasma, 8 μg/mL TPB15, ultrafiltration, 37 °C 3 h)?
**A.** 0.188

**Q.** What about the fraction unbound at 3 h, 16 μg/mL ([1]; cynomolgus monkey, plasma, 16 μg/mL TPB15, ultrafiltration, 37 °C 3 h) of the same compound?
**A.** 0.178

**Q.** And the fraction unbound at 3 h ([1]; monkey plasma, 4 to 16 μg/mL, read-out: average plasma protein binding rates, range over concentrations)?
**A.** 0.178 to 0.188

**Q.** And the fraction unbound at 3 h, 4 μg/mL ([2]; dog, plasma, 4 μg/mL TPB15, ultrafiltration, 37 °C 3 h)?
**A.** 0.185

**Q.** And the fraction unbound at 3 h, 8 μg/mL ([2]; dog, plasma, 8 μg/mL TPB15, ultrafiltration, 37 °C 3 h)?
**A.** 0.19

**Q.** And the fraction unbound at 3 h, 16 μg/mL ([2]; dog, plasma, 16 μg/mL TPB15, ultrafiltration, 37 °C 3 h)?
**A.** 0.177

**Q.** And the fraction unbound at 3 h ([2]; dog plasma, 4 to 16 μg/mL, read-out: average plasma protein binding rates, range over concentrations)?
**A.** 0.177 to 0.19

**Q.** What about the “Remaining proportion of substrate TPB15 (%) Human” value (“Remaining proportion … (%) Human” below) ([3]; incubation 0 min) of the same compound?
**A.** 100.0 ± 1.0%

**Q.** And the “Remaining proportion … (%) Human” value ([3]; incubation 30 min)?
**A.** 97.3 ± 1.5%

**Q.** What about the “Remaining proportion … (%) Human” value ([3]; incubation 60 min) of the same compound?
**A.** 97.7 ± 0.6%

**Q.** And the “Remaining proportion … (%) Human” value ([3]; incubation 90 min)?
**A.** 98.0 ± 1.0%

**Q.** What about the “Remaining proportion … (%) Human” value ([3]; incubation 120 min) of the same compound?
**A.** 97.2 ± 1.1%

**Q.** And the “primary metabolic enzymes involved in TPB15 metabolism” value [4]?
**A.** CYP2C9 and CYP3A4

**Q.** And the “metabolic reaction of TPB15 in human liver microsomes” value [5]?
**A.** oxidation

**Q.** And the “lethal dose for 50% of the population (LD50)” value (mice)?
**A.** 3875.35 mg/kg

**Q.** And the “inhibition of proliferation of TNBC cell line” value (MDA-MB-468)?
**A.** significantly inhibits the proliferation

**Q.** What about the tumor inhibitory effect (MDA-MB-468 xenograft) of the same compound?
**A.** robust tumor inhibitory effect, surpassing that of the positive control drug Vismodegib

**Q.** And the “binding to the Smo target” value (Smo)?
**A.** effectively binds to the Smo target
